Source: publication PMC8156061, “Design, Synthesis, and Anticancer Screening for Repurposed Pyrazolo[3,4-d]pyrimidine Derivatives on Four Mammalian Cancer Cell Lines” (Molecules, 2021)

Experiments:
Caco-2 cells = assay: Cell viability, MTT assay, Caco-2; assay type: cell-based, human; conditions: for IC50: Homo sapiens
Protocol: (§1) A (4,5-dimethylthiazol-2-yl)-2,5-diphenyltetrazolium) MTT assay was used for the determination of the cytotoxic effects of three compounds (5, 6, and 7) in vitro (Figure 9). Hela, HT1080, Caco-2, and A549 cells were treated with various concentrations of the compounds employed in the current study (0, 1, 10, 50, 100, 500 µM) for 48 h.
(§2) Figure 9 Normalised percentage cell viability inhibition of compounds 5 and 7, measured by three independent MTT assays in A549 and Caco-2 cell lines and by three independent experiments with crystal violet staining in Hela and HT1080 cell lines. Cells were treated with different concentrations (from 1 and up to 500 µM) of the compounds for 48 h, * = first concentration significant reduction in cell viability in comparison to the control.
(§3) Human fibrosarcoma (HT1080), cervical cancer (Hela), colorectal cancer (Caco-2), and human lung cancer cell lines (A549) were purchased from […] (ECACC, Salisbury, UK). Cervical cancer cells (Hela) and fibrosarcoma cells (HT-1080) were maintained in a RPMI medium supplemented with 10% foetal bovine serum (FBS) and were expanded at 37 °C and 5% CO2. Caco-2 and A549 cells were grown in Dulbecco’s modified eagle medium (DMEM)-high glucose (biowest, Riverside, MO, USA) enriched with (10% v/v) (foetal bovine serum) FBS (biowest, Riverside, MO, USA) and antibiotics (100 U/mL penicillin, 100 μg mL streptomycin) (Lonza, Basel, Switzerland). Cells were maintained at 37 °C in an incubator with 5% CO2 atmosphere. Part of the experiments were carried out in CERRMA (Center of Excellence for Research in Regenerative Medicine and its Applications), Faculty of Medicine, Alexandria University.
(§4) The cell viability of A549 and Caco-2 cells was measured using MTT assays. Cells were incubated for 48 h in triplicates with the compounds of interest. […] Cells were seeded in 96-well plates at a density of 5 × 10^3 cells/well and were maintained in complete media. After adherence for 48 h, cells were treated with different concentrations of newly synthesized compounds ranging from […]. The plates were incubated at 5% CO2 and 37 °C. After 48 h, the medium was discarded, and cells were incubated with 100 μL MTT (Serva, Heidelberg, Germany) solution (0.5 mg/mL) for 3 h at 5% CO2 and 37 °C. Finally, the reagent was discarded and replaced with 100 μL DMSO. The optical density was measured at a wavelength of 570 nm (Tecan, Infinite F50, Magellan reader control and data analysis software, Mennedov, Switzerland). The percentage cell viability data were obtained by normalization of the optical density (OD) values for all groups to the OD of the control group.

HT1080 cells = assay: Cell viability, crystal violet staining, HT1080; assay type: cell-based, human; conditions: for first concentration with significant reduction in cell viability / IC50: HT1080, 48 h; for first concentration with significant reduction in cell viability: versus control; for IC50: Homo sapiens, HT-1080
Protocol: as §1, §2, §3
(§5) Cervical Hela and HT-1080 cells (2 × 10^4 per well) were seeded in 96-well tissue culture plates in 100 μL cell culture medium. Cells were incubated for 48 h in triplicates with the compounds of interest. The cytotoxic effect was assessed by crystal violet staining and measured at 595 nm. To normalize cell viability values each plate included a triplicate of cells treated with DMSO, the vehicle of the compound to calculate 100% viable cells. At the same time, a triplicate of cells was simulated with a cytotoxic combination (200 ng/mL TNF, 200 ng/mL CD95L, 200 ng/mL TRAIL, 25 µg/mL CHX, 1% (w/v) sodium azide) to elucidate maximal cell death, and thus 0% viability. All other viability values were normalized depending on the averages of these triplicates and evaluated by the Graph Pad Prism 5 software (La Jolla, CA, USA).

A549 cells [1] = assay: Cell viability, MTT assay, A549; assay type: cell-based, human; conditions: for first concentration with significant reduction in cell viability / IC50: A549, 48 h; for first concentration with significant reduction in cell viability: versus control; for IC50: Homo sapiens
Protocol: as §1, §2, §3, §4

male albino rats = assay: In vivo toxicity evaluation: serum hepatic and renal biochemical parameters in rats; set-up: species or system rat; conditions: 20 mg/kg/day orally twice weekly for 6 weeks; for ALP / ALT / AST / Albumin / Bilirubin / Cholesterol / Triglyceride: rat serum; for Overall in vivo toxicity assessment: rats, versus healthy control group
From the text: Before the assessment of the anticancer activity of the compounds, in the present study, we examined their toxicity in vivo on normal tissues.
Male albino rats (150 g average weight) were purchased from the animal house of the Institute of Graduate Studies and Research, Alexandria University, Egypt. The animals were housed under standardized environmental conditions, fed with a standard diet and water, and left to acclimate to the environment for one week prior to inclusion in the experiment. All of the animal experiments were conducted in accordance with the guidelines for the care and use of laboratory animals of the National Institutes of Health (NIH 1985). The experimental procedures employed were ethically reviewed and approved by the Institutional Animal Care and Use Committee (IACUC) of Alexandria University (Ethical approval number of the study: AU14-200922-1-8A) and “declaration of Helsinki”. Four groups of rats were administered 20 mg/kg/day of compounds 5, 6, and 7 orally twice weekly for 6 weeks. Liver enzymes and other liver biomarkers together with creatinine and urea were measured (Table 1).
The collected blood was allowed to clot, the serum was separated at 2000× g, and the biochemical markers of hepatic damage, including serum ALT, AST [33], ALP [34], albumin [35], total bilirubin [36], TG [37], urea, creatinine, and total cholesterol, were estimated according to previously reported methods. These parameters were determined using available commercial kits (ARE) following the instructions of the manufacturer.

Hela cells = assay: Cell viability, crystal violet staining, Hela; assay type: cell-based, human; conditions: 48 h; for first concentration with significant reduction in cell viability: versus control; for IC50: Homo sapiens, HeLa
Protocol: as §1, §2, §3, §5

BCR-ABL tyrosine kinase = system: BCR-ABL tyrosine kinase; set-up: method as in earlier work; conditions: literature statement; cited from earlier work
A549 cells [2] = assay: Apoptosis assay, annexin V flow cytometry; assay type: cell-based, human
Protocol: (§6) In order to exclude apoptotic effects as a mechanism for the observed anticancer activity of the compounds and according to the in silico results, induction of apoptosis by compound 7 was examined using an annexin V flow cytometry assay (Figure 10a).
(§7) Figure 10 (a) Apoptosis analysis in A549 cells following treatment of cells with compound 7 at IC50 concentration. Flowcytometry was conducted using Alexa Fluor 488 annexin V conjugate. […] (b) Western blot analysis showing cleaved caspase-3 protein expression level. […] (c) Proliferation analysis (Ki67) in A549 cells following treatment cells with compound 7 at IC50 concentration. The analysis was done using flow cytometry and the Ki-67 FITC antibody.
For evaluating cell apoptosis, cells were plated in 6-well plates at a density of 2 × 10^4 cells per well. After incubation for 24 h, 70% confluency is reached. Cells were then labelled using the FITC Annexin V apoptosis detection kit I (BD Pharminogen, San Diego, CA, USA) according to manufacturer’s instructions (Cell Signaling Technology; Flow Cytometry, Methanol Permeabilization Protocol) and analysed by using BD FACS Calibur flow cytometry and Cell Quest™ software.

[3] = system: cleaved caspase-3 protein; assay: Western blot of cleaved caspase-3 protein expression; assay type: cell-based; conditions: IC50 concentration, versus untreated cells
Protocol: as §6, §7
A western blot assay was carried out to examine cleaved caspase-3 protein expression levels following the different treatments with different concentrations of the compound that were employed in the current study. Cells (5 × 10^5 cells/well) were seeded in 12-well plates and were induced the next day with the compounds of interest for 48 h. […] The proteins of interest were detected with a suitable primary antibody (Anti-Caspase-3, 17,19 kD, Rabbit polyclonal ≠ 9661, from Cell Signaling Technology, Beverly, MA, USA) and horseradish peroxidase conjugated secondary antibodies (Dako, Glostrup, Denmark and Cell Signaling Technology, Beverly, MA, USA).

[4] = system: Ki67 expression in A549 cells; assay: Proliferation assay, Ki67 expression by flow cytometry; assay type: cell-based, human; conditions: A549, IC50 concentration, 48 h; control cells 85.61%
Protocol: as §7
Ki67 expression was determined using a flow cytometry assay. […] The percentage of cells labelled using Ki67 antibody in the control cells was 85.61%, whereas those labelled with the same antibody following treatment with compound 7 was 68.06%.
For evaluating the proliferation status of cells, cells were plated in 6-well plates at a density of 2 × 10^4 cells per well for the cell proliferation assay. After incubation for 24 h, 70% confluency is reached.

Row | SMILES | IC50 (Caco-2 cells; Caco-2, 48 h) [µM] | first concentration with significant reduction in cell viability (HT1080 cells) [µM] | IC50 (HT1080 cells) [µM] | first concentration with significant reduction in cell viability (A549 cells [1]) [µM] | IC50 (A549 cells [1]) [µM] | ALP (male albino rats) [U/L] | ALT (male albino rats) [U/L] | AST (male albino rats) [U/L] | Albumin (male albino rats) [g/dL] | Bilirubin (male albino rats) [mg/dL] | Cholesterol (male albino rats) [mg/dL] | Triglyceride (male albino rats) [mg/dL] | Overall in vivo toxicity assessment (male albino rats) | first concentration with significant reduction in cell viability (Hela cells; Hela) [µM] | IC50 (Hela cells) [µM] | also measured
1 | COc1ccc(C=NNc2ncnc3c2cnn3-c2ccccc2)cc1 [Compound 5, 2-(4-Methoxybenzylidene)-1-(1-phenyl-1H-pyrazolo[3,4-d]pyrimidin-4-yl)hydrazine] | 76.9 | 50 | 96.2 | 50 | 148 | 2.1 ± 0.52 | 43 ± 5.2 | 102 ± 8.7 | 4.4 ± 0.37 | 0.11 ± 0.12 | 71 ± 4.8 | 72 ± 8.6 | safe compounds comparable to the healthy control group | 50 | 74.8 | –
2 | COc1ccc(/C=N/Nc2ncnc3c2cnn3-c2ccccc2)cc1OC [Compound 6] | – | – | – | – | – | 2 ± 0.12 | 44 ± 5.7 | 100 ± 9.8 | 4.6 ± 1.8 | 0.12 ± 0.12 | 69 ± 7.8 | 75 ± 6.5 | safe compounds comparable to the healthy control group | – | – | effect on cell viability (Caco-2 cells; Caco-2, up to 500 µM, 48 h, data not shown): did not show any significant decrease in the cell viability; effect on cell viability (HT1080 cells; HT1080, up to 500 µM, 48 h, data not shown): did not show any significant decrease in the cell viability; effect on cell viability (A549 cells [1]; A549, up to 500 µM, 48 h, data not shown): did not show any significant decrease in the cell viability; effect on cell viability (Hela cells; Hela, up to 500 µM, data not shown): did not show any significant decrease in the cell viability; inhibition of BCR-ABL tyrosine kinase (BCR-ABL tyrosine kinase): capable of inhibiting BCR-ABL tyrosine kinase
3 | COc1cc(C=NNc2ncnc3c2cnn3-c2ccccc2)cc(OC)c1OC [Compound 7, 2-(3,4,5-Trimethoxybenzylidene)-1-(1-phenyl-1H-pyrazolo[3,4-d]pyrimidin4yl)hydrazine] | 73.1 | 25 | 43.8 | 1 | 68.8 | 1.8 ± 0.88 | 42 ± 7.2 | 103 ± 8.8 | 4.6 ± 1.1 | 0.11 ± 0.32 | 71 ± 5.8 | 77 ± 7.5 | safe compounds comparable to the healthy control group | 12.5 | 17.5 | first concentration with significant reduction in cell viability (Caco-2 cells; Caco-2, 48 h, versus control): 1 µM; effect on viability of cells through apoptosis (A549 cells [2]; A549, 24 h incubation, versus untreated group): no significant effect; percentage gating in the lower left quadrant (annexin V) (A549 cells [2]; A549, IC50 concentration, control untreated 97.8): 97.58%; change in cleaved caspase-3 protein expression level [3]: no significant change; percentage of cells labelled using Ki67 antibody [4]: 68.06%
